Measured values from the supplement of paper PMC5579334.
± gives the standard deviation of the averaged measurements.

Assays:
S1507-2 [1] = test: drug sensitivity score (DSS, CellTox-Green cytotoxicity, 72 h) (DSS (dimensionless)); higher = more cytotoxic; extreme values may be limits of the assay
Procedure, shortened: (§1)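 MPNST cell lines and primary human Schwann cells were grown for 72 h at 37 °C in 384-well plates containing five 10-fold compound dilutions. CellTox-Green, added before seeding at a final 1:1000 dilution, gave fluorescence from DNA released by disrupted cells, and signals were scaled to vehicle and positive-control wells. Curves were fitted with a four-parameter logistic model. Drug sensitivity score and relative IC50 come from these fits, with IC50 censored at the top concentration.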

ST8814 [2] = test: as above
Procedure, shortened: as §1

HS-PSS [3] = test: as above
Procedure, shortened: as §1

[4] = system: HSC1 (primary human Schwann cells); test: as above
Procedure, shortened: as §1

[5] = system: HSC2 (primary human Schwann cells); test: as above
Procedure, shortened: as §1

STS26T [6] = test: as above
Procedure, shortened: as §1

HS-Sch-2 [7] = test: drug sensitivity score (DSS, CellTiter-Glo viability, 72 h) (DSS (dimensionless)); higher = more sensitive; extreme values may be limits of the assay
Procedure, shortened: (§2)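 For this screen, 384-well plates were preprinted with each compound at five concentrations in 10-fold steps and seeded with MPNST cell lines or primary human Schwann cells at 750–1000 cells per well. Incubation lasted 72 h at 37 °C, 5% CO2, and CellTiter-Glo ATP luminescence, scaled between vehicle and positive-control wells and averaged over duplicates where available, served as viability. Logistic fits with four parameters were applied. Relative IC50 (censored at the top concentration) and drug sensitivity score derive from these fits, and percent inhibition is at the top concentration.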

S1507-2 [8] = test: as above
Procedure, shortened: as §2

ST8814 [9] = test: as above
Procedure, shortened: as §2

YST-1 [10] = test: as above
Procedure, shortened: as §2

HS-PSS [11] = test: as above
Procedure, shortened: as §2

S462 [12] = test: as above
Procedure, shortened: as §2

[13] = system: HSC1 (primary human Schwann cells); test: as above
Procedure, shortened: as §2

[14] = system: HSC2 (primary human Schwann cells); test: as above
Procedure, shortened: as §2

STS26T [15] = test: as above
Procedure, shortened: as §2

HS-Sch-2 [16] = test: % inhibition of CellTiter-Glo viability at highest tested concentration (72 h), relative to DMSO and benzethonium chloride controls; higher = more inhibition
Procedure, shortened: as §2

S1507-2 [17] = test: as above
Procedure, shortened: as §2

ST8814 [18] = test: as above
Procedure, shortened: as §2

YST-1 [19] = test: as above
Procedure, shortened: as §2

HS-PSS [20] = test: as above
Procedure, shortened: as §2

S462 [21] = test: as above
Procedure, shortened: as §2

[22] = system: HSC1 (primary human Schwann cells); test: as above
Procedure, shortened: as §2

[23] = system: HSC2 (primary human Schwann cells); test: as above
Procedure, shortened: as §2

STS26T [24] = test: as above
Procedure, shortened: as §2

Structure (SMILES) | drug sensitivity score (S1507-2 [1]) | drug sensitivity score (ST8814 [2]) | drug sensitivity score (HS-PSS [3]) | drug sensitivity score [4] | drug sensitivity score [5] | drug sensitivity score (STS26T [6]) | drug sensitivity score (HS-Sch-2 [7]) | drug sensitivity score (S1507-2 [8]) | drug sensitivity score (ST8814 [9]) | drug sensitivity score (YST-1 [10]) | drug sensitivity score (HS-PSS [11]) | drug sensitivity score (S462 [12]) | drug sensitivity score [13] | drug sensitivity score [14] | drug sensitivity score (STS26T [15]) | % inhibition (HS-Sch-2 [16]) | % inhibition (S1507-2 [17]) | % inhibition (ST8814 [18]) | % inhibition (YST-1 [19]) | % inhibition (HS-PSS [20]) | % inhibition (S462 [21]) | % inhibition [22] | % inhibition [23] | % inhibition (STS26T [24])
CO[C@H]1C[C@@H]2CC[C@@H](C)[C@@](O)(O2)C(=O)C(=O)N2CCCC[C@H]2C(=O)O[C@H]([C@H](C)C[C@@H]2CC[C@@H](OP(C)(C)=O)[C@H](OC)C2)CC(=O)[C@H](C)/C=C(\C)[C@@H](O)[C@@H](OC)C(=O)[C@H](C)C[C@H](C)/C=C/C=C/C=C/1C [Ridaforolimus] (max concentration tested 100 nM) | 0 | 0 | 0 | 0 | 0 | 0 | 4.49 | 7.07 ± 0.28 | 8.41 | 9.63 | 5.02 | 8.13 ± 1.3 | 16.8 | 15.8 | 13.1 | 31% | 35.9 ± 0.46% | 32.1% | 43.6% | 28.6% | 40.4 ± 5.1% | 51.5% | 52.6% | 48.8%
CN(Cc1cnc2nc(N)nc(N)c2n1)c1ccc(C(=O)N[C@@H](CCC(=O)O)C(=O)O)cc1 [Methotrexate] (max concentration tested 5000 nM) | 0 | 0.851 | 0.89 | 0 | 0 | 4.94 | 13.7 | 1.24 ± 1.8 | 6.3 | 6.23 | 0 | 19.9 ± 4.6 | 0 | 0.0797 | 25.9 | 58.8% | -2.04 ± 33% | 38.2% | 24.6% | -5.89% | 70.2 ± 8.4% | 3.1% | 13.5% | 62.5%
COc1cccc2cc(-c3nc([C@H]4CC[C@H](C(=O)O)CC4)n4ncnc(N)c34)[nH]c12 [OSI-027] (max concentration tested 10000 nM) | 2.04 ± 1.4 | 0 | 0 | 0 | 0 | 0 | 2.33 | 8.32 ± 1 | 5.6 | 9.46 | 0.84 | 7.41 ± 0.52 | 10.7 | 8.56 | 4.45 | 49.1% | 64.4 ± 4.5% | 53% | 78% | 26.6% | 58.2 ± 2.5% | 84.8% | 80.9% | 53.1%
O=C(O)CC[C@H]1CC[C@@](c2cc(F)ccc2F)(S(=O)(=O)c2ccc(Cl)cc2)CC1 [MK-0752] (max concentration tested 1000 nM) | 0.0001 ± 0.00014 | 0 | 0 | 0 | 0 | 0 | 0 | 0 | 0 | 0 | 0 | 0 | 1.49 | 1.16 | 0 | 10.9% | -8.17 ± 8.2% | -3.6% | 4.12% | 5.19% | 6.43 ± 3.5% | 13.4% | 15.4% | 4.15%
CO[C@H]1/C=C\C=C(/C)C(=O)NC2=CC(=O)C(NCCN(C)C)=C(C[C@@H](C)C[C@H](OC)[C@H](O)[C@@H](C)/C=C(\C)[C@@H]1OC(N)=O)C2=O [Alvespimycin] (max concentration tested 1000 nM) | 7.17 ± 1.2 | 6.78 | 3.83 | 8.04 | 8.36 | 7.8 | 15.8 | 12.3 ± 0.18 | 14.6 | 15.4 | 13.8 | 15.4 ± 0.78 | 10 | 9.75 | 12.5 | 100% | 95.7 ± 2.9% | 98.8% | 78.2% | 85.3% | 99.51 ± 0.13% | 98.1% | 96.2% | 91.8%
CC(C)c1cc(-c2n[nH]c(=O)n2-c2ccc3c(ccn3C)c2)c(O)cc1O [Ganetespib] (max concentration tested 1000 nM) | 12.7 | 17.2 | 4.34 | 21.1 | 20.9 | 10.9 | 19.6 | 15.5 | 20.7 | 13.7 | 13.9 | 19.2 | 21.5 | 20.6 | 17.6 | 101% | 94.5% | 101% | 79.1% | 84.2% | 99.6% | 99.1% | 98.5% | 94.1%
Nc1ncnc2c1nc(Cl)n2[C@@H]1O[C@H](CO)[C@@H](O)[C@H]1O [8-chloro-adenosine] (max concentration tested 50000 nM) | 1.46 ± 1.7 | 0.449 | 0 | 0 | 0 | 6.31 | 11.1 | 12.4 ± 2.1 | 9.48 | 12.9 | 5.54 | 14.21 ± 0.085 | 9.38 | 9.83 | 12.3 | 80% | 74 ± 0.56% | 54.5% | 88.6% | 55.6% | 82.1 ± 4.6% | 73.8% | 73.7% | 86.8%
Clc1ccc(C(c2ccccc2Cl)C(Cl)Cl)cc1 (stereo not drawn) [Mitotane] (max concentration tested 10000 nM) | 3.77 ± 5.3 | 0 | 0 | 0 | 0 | 0 | 0 | 0 | 0 | 0 | 0 | 0 | 0 | 0 | 0 | 1.46% | 2.14 ± 4.9% | 6.22% | 0.23% | -3.05% | 2.7 ± 7.9% | 4.91% | 1.58% | 4.66%
Nc1ccccc1NC(=O)c1ccc(CNC(=O)OCc2cccnc2)cc1 [Entinostat] (max concentration tested 10000 nM) | 2.98 ± 1.3 | 2.69 | 0.63 | 0 | 0 | 0.625 | 4.13 | 4.79 ± 0.3 | 4.2 | 10.3 | 2.31 | 9.84 ± 0.75 | 5.09 | 4.87 | 4.35 | 79.7% | 74.9 ± 7.7% | 87.7% | 97.7% | 52% | 105.3 ± 0.38% | 71.2% | 73% | 69.3%
CO[C@H](C(=O)[C@@H](O)[C@@H](C)O)[C@@H]1Cc2cc3cc(O[C@H]4C[C@@H](O[C@H]5C[C@@H](O)[C@H](O)[C@@H](C)O5)[C@@H](O)[C@@H](C)O4)c(C)c(O)c3c(O)c2C(=O)[C@H]1O[C@H]1C[C@@H](O[C@H]2C[C@@H](O[C@H]3C[C@](C)(O)[C@H](O)[C@@H](C)O3)[C@H](O)[C@@H](C)O2)[C@H](O)[C@@H](C)O1 [Plicamycin] (max concentration tested 10000 nM) | 10.4 ± 4.4 | 0 | 2.63 | 10.6 | 12.6 | 25.9 | 12.5 | 22.5 ± 0.9 | 25.7 | 14.8 | 9.51 | 24.32 ± 0.091 | 24.4 | 24.6 | 27 | 102% | 87 ± 2.5% | 82.8% | 101% | 96.8% | 97.26 ± 0.26% | 83.7% | 87% | 95.8%
COc1cc(Nc2ncc3c(n2)-c2ccc(Cl)cc2C(c2c(F)cccc2OC)=NC3)ccc1C(=O)O [Alisertib] (max concentration tested 10000 nM) | 4.28 ± 3.2 | 7.04 | 0 | 0 | 0 | 18.8 | 11.3 | 11.77 ± 0.033 | 10.5 | 15 | 3.93 | 18.8 ± 1.3 | 16.7 | 17.5 | 14.9 | 64.5% | 50.5 ± 5.3% | 59.4% | 47.5% | 44.7% | 59.1 ± 1% | 65.5% | 57.6% | 58.4%
O=C(NC[C@H](O)CO)c1ccncc1Nc1ccc(I)cc1F [Pimasertib] (max concentration tested 10000 nM) | 5.35 ± 0.4 | 6.32 | 0 | 0.153 | 0 | 0.309 | 5.83 | 11.9 ± 1.4 | 10.8 | 1.29 | 2.94 | 11.9 ± 0.82 | 7.67 | 7.43 | 6.72 | 55.4% | 81.8 ± 2.4% | 95.9% | 34.4% | 44.3% | 83.69 ± 0.41% | 60.7% | 65% | 42%
